Laboratory results reported in PMC11396129, “Oxindole–benzothiazole hybrids as CDK2 inhibitors and anticancer agents: design, synthesis and biological evaluation” (BMC Chemistry, 2024).

Assays:
MOLT-4 = experiment: NCI 60 panel growth inhibition (SRB), leukemia; type: cell-based, human; conditions: MOLT-4, 10 μM
In short: (§1)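 Human tumour lines were plated according to doubling time and exposed to five-point dilution series, 10-fold or half-log, of each compound. SRB-based growth percentages used time-zero and control absorbances as references.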

K-562 = experiment: NCI 60 panel growth inhibition (SRB), leukemia; type: cell-based, human; conditions: K-562, 10 μM
In short: as §1

CCRF-CEM = experiment: NCI 60 panel growth inhibition (SRB), leukemia; type: cell-based, human; conditions: 10 μM
In short: as §1

RPMI-8226 = experiment: NCI 60 panel growth inhibition (SRB), leukemia; type: cell-based, human; conditions: RPMI-8226, 10 μM
In short: as §1

HL-60(TB) = experiment: NCI 60 panel growth inhibition (SRB), leukemia; type: cell-based, human; conditions: HL-60(TB), 10 μM
In short: as §1

SR = experiment: NCI 60 panel growth inhibition (SRB), leukemia; type: cell-based, human; conditions: 10 μM
In short: as §1

OVCAR-5 = experiment: NCI 60 panel growth inhibition (SRB), ovarian cancer; type: cell-based, human; conditions: OVCAR-5, 10 μM
In short: as §1

SK-OV-3 = experiment: as above; type: cell-based, human; conditions: SK-OV-3, 10 μM
In short: as §1

OVCAR-4 = experiment: as above; type: cell-based, human; conditions: OVCAR-4, 10 μM
In short: as §1

IGROV1 = experiment: as above; type: cell-based, human; conditions: IGROV1, 10 μM
In short: as §1

OVCAR-3 = experiment: as above; type: cell-based, human; conditions: OVCAR-3, 10 μM
In short: as §1

NCI/ADR-RES = experiment: as above; type: cell-based, human; conditions: 10 μM
In short: as §1

OVCAR-8 = experiment: as above; type: cell-based, human; conditions: OVCAR-8, 10 μM
In short: as §1

SK-MEL-2 = experiment: NCI 60 panel growth inhibition (SRB), melanoma; type: cell-based, human; conditions: SK-MEL-2, 10 μM
In short: as §1

NCI-H322M = experiment: NCI 60 panel growth inhibition (SRB), non-small cell lung cancer; type: cell-based, human; conditions: 10 μM
In short: as §1

NCI-H226 = experiment: as above; type: cell-based, human; conditions: NCI-H226, 10 μM
In short: as §1

EKVX = experiment: as above; type: cell-based, human; conditions: 10 μM
In short: as §1

NCI-H23 = experiment: as above; type: cell-based, human; conditions: NCI-H23, 10 μM
In short: as §1

HOP-62 = experiment: as above; type: cell-based, human; conditions: HOP-62, 10 μM
In short: as §1

NCI-H522 = experiment: as above; type: cell-based, human; conditions: NCI-H522, 10 μM
In short: as §1

A549/ATCC = experiment: as above; type: cell-based, human; conditions: 10 μM
In short: as §1

NCI-H460 = experiment: as above; type: cell-based, human; conditions: NCI-H460, 10 μM
In short: as §1

DU-145 = experiment: NCI 60 panel growth inhibition (SRB), prostate cancer; type: cell-based, human; conditions: DU-145, 10 μM
In short: as §1

U251 = experiment: NCI 60 panel growth inhibition (SRB), CNS cancer; type: cell-based, human; conditions: U251, 10 μM
In short: as §1

HT29 = experiment: NCI 60 panel growth inhibition (SRB), colon cancer; type: cell-based, human; conditions: HT29, 10 μM
In short: as §1

HOP-92 = experiment: NCI 60 panel growth inhibition (SRB), non-small cell lung cancer; type: cell-based, human; conditions: HOP-92, 10 μM
In short: as §1

PC-3 = experiment: NCI 60 panel growth inhibition (SRB), prostate cancer; type: cell-based, human; conditions: PC-3, 10 μM
In short: as §1

Row | Structure (SMILES) | GI% (MOLT-4) | GI% (K-562) | GI% (CCRF-CEM) | GI% (RPMI-8226) | GI% (HL-60(TB)) | GI% (OVCAR-5) | GI% (IGROV1) | GI% (OVCAR-3) | GI% (NCI/ADR-RES) | GI% (OVCAR-8) | GI% (SK-MEL-2) | GI% (NCI-H322M) | GI% (NCI-H226) | GI% (EKVX) | GI% (NCI-H23) | GI% (NCI-H522) | GI% (A549/ATCC) | GI% (NCI-H460) | GI% (DU-145) | GI% (U251) | other results
1 | COc1cccc(-c2nc3ccccc3s2)c1OCC(=O)NN=C1C(=O)Nc2ccc(Cl)cc21 [Compound 9k, 2-(2-(Benzo[d]thiazol-2-yl)-6-methoxyphenoxy)-N′-(5-chloro-2-oxoindolin-3-ylidene)acetohydrazide] | 43.70% | 29.20% | 24.47% | 29.96% | 6.09% | 8.99% | – (GI% < 5%) | – (GI% < 5%) | 20.56% | 12.69% | 12.78% | – (GI% < 5%) | 18.20% | 66.74% | 17.71% | 28.39% | 26.29% | 8.94% | – (GI% < 5%) | – (GI% < 5%) | GI% (SR): 17.83%; GI% (SK-OV-3): – (GI% < 5%); GI% (OVCAR-4): 13.16%; GI% (HOP-62): 6.81%; melting point: 263 to 265 °C; GI% (HT29): 14.83%
2 | COc1cccc(-c2nc3ccccc3s2)c1OCC(=O)NN=C1C(=O)Nc2ccc(Br)cc21 [Compound 9l, 2-(2-(Benzo[d]thiazol-2-yl)-6-methoxyphenoxy)-N′-(5-bromo-2-oxoindolin-3-ylidene)acetohydrazide] | 36.40% | 18.70% | 15.16% | 25.41% | – (GI% < 5%) | – (GI% < 5%) | 11.35% | – (GI% < 5%) | 19.73% | 10.38% | 9.60% | – (GI% < 5%) | 12.06% | 66.66% | 17.03% | 25.73% | 17.13% | 5.26% | – (GI% < 5%) | – (GI% < 5%) | GI% (SR): 16.68%; GI% (SK-OV-3): – (GI% < 5%); GI% (OVCAR-4): 11.40%; GI% (HOP-62): 13.44%; melting point: 266 to 268 °C; GI% (HT29): 9.08%
3 | COc1ccc(-c2nc3ccccc3s2)cc1OCC(=O)NN=C1C(=O)Nc2ccc(C)cc21 [Compound 9n, 2-(5-(Benzo[d]thiazol-2-yl)-2-methoxyphenoxy)-N′-(5-methyl-2-oxoindolin-3-ylidene)acetohydrazide] | 13.07% | 6.70% | 16.11% | 14.26% | – (GI% < 5%) | 7.10% | – (GI% < 5%) | – (GI% < 5%) | 14.31% | – (GI% < 5%) | – (GI% < 5%) | 10.32% | – (GI% < 5%) | – (GI% < 5%) | 12.32% | – (GI% < 5%) | – (GI% < 5%) | – (GI% < 5%) | 7.08% | – (GI% < 5%) | GI% (SK-OV-3): – (GI% < 5%); GI% (HOP-92): – (GI% < 5%); GI% (HOP-62): – (GI% < 5%); GI% (PC-3): – (GI% < 5%); melting point: 224 to 226 °C; GI% (HT29): – (GI% < 5%)
4 | O=C(COc1ccccc1-c1nc2ccccc2s1)NN=C1C(=O)Nc2ccc(Cl)cc21 [Compound 9e, 2-(2-(Benzo[d]thiazol-2-yl)phenoxy)-N′-(5-chloro-2-oxoindolin-3-ylidene)acetohydrazide] | – (GI% < 5%) | – (GI% < 5%) | –^a (GI% < 5%) | – (GI% < 5%) | – (GI% < 5%) | – (GI% < 5%) | – (GI% < 5%) | – (GI% < 5%) | 6.89% | – (GI% < 5%) | – (GI% < 5%) | – (GI% < 5%) | 11.52% | 53.99% | 7.05% | 11.15% | – (GI% < 5%) | – (GI% < 5%) | – (GI% < 5%) | – (GI% < 5%) | GI% (SR): 6.46%; GI% (SK-OV-3): – (GI% < 5%); GI% (OVCAR-4): – (GI% < 5%); GI% (HOP-62): – (GI% < 5%); melting point: 265 to 267 °C; GI% (HT29): – (GI% < 5%)
5 | COc1ccc(-c2nc3ccccc3s2)cc1OCC(=O)NN=C1C(=O)Nc2ccc([N+](=O)[O-])cc21 [Compound 9p, 2-(5-(Benzo[d]thiazol-2-yl)-2-methoxyphenoxy)-N′-(5-nitro-2-oxoindolin-3-ylidene)acetohydrazide] | – (GI% < 5%) | – (GI% < 5%) | 9.28% | – (GI% < 5%) | – (GI% < 5%) | – (GI% < 5%) | 41.60% | – (GI% < 5%) | 19.93% | 38.18% | 115.65% | 6.14% | 67.22% | 9.22% | 47.90% | 42.45% | 7.06% | – (GI% < 5%) | – (GI% < 5%) | 78.07% | GI% (SR): – (GI% < 5%); GI% (OVCAR-4): 13.06%; GI% (HOP-92): 99.07%; GI% (PC-3): 11.94%; melting point: 288 to 290 °C; GI% (HT29): – (GI% < 5%)
